Measured values as given in ChEMBL document CHEMBL2331429, “Purgin II, a resin glycoside ester-type dimer and inhibitor of multidrug efflux pumps from Ipomoea purga” (J Nat Prod, 2013).
The source made the active and inactive calls. The rule behind the calls is not given here.

Legend:
MCF7 [1] = test: Potentiation of vinblastine-induced cytotoxicity in human MCF7 cells at 25 ug/ml after 72 hrs by SRB assay; format: functional
[2] = target: T1, ATP-dependent translocase ABCB1 (Homo sapiens, UniProt P08183); test: Inhibition of p-glycoprotein in human vinblastine-resistant MCF7 cells cultured in vinblastine-free medium assessed as potentiation of vinblastine-induced cytotoxicity at 25 ug/ml after 72 hrs by SRB assay; format: cell-based; settings: mcf7, 72 h
MCF7 [3] = test: Cytotoxicity against human vinblastine-resistant MCF7 cells after 72 hrs by SRB assay; format: cell-based; settings: MCF7, 72 h
MCF7 [4] = test: Cytotoxicity against human MCF7 cells after 72 hrs by SRB assay; format: cell-based; settings: MCF7, 72 h
[5] = target: T1, ATP-dependent translocase ABCB1; test: Inhibition of p-glycoprotein in human vinblastine-resistant MCF7 cells cultured in medium containing vinblastine assessed as potentiation of vinblastine-induced cytotoxicity at 25 ug/ml after 72 hrs by SRB assay; format: cell-based; settings: mcf7, 72 h
[6] = target: T1, ATP-dependent translocase ABCB1; test: Inhibition of p-glycoprotein in human vinblastine-resistant MCF7 cells assessed as increase of rhodamine-123 accumulation at 5 ug/ml measured up to 50 mins; format: cell-based; settings: mcf7, 50 min
[7] = target: T1, ATP-dependent translocase ABCB1; test: Inhibition of p-glycoprotein in human vinblastine-resistant MCF7 cells cultured in vinblastine-free medium assessed as potentiation of vinblastine-induced cytotoxicity at 5 ug/ml after 72 hrs by SRB assay; format: cell-based; settings: mcf7, 72 h
[8] = target: T1, ATP-dependent translocase ABCB1; test: Inhibition of p-glycoprotein in human vinblastine-resistant MCF7 cells cultured in medium containing vinblastine assessed as potentiation of vinblastine-induced cytotoxicity at 5 ug/ml after 72 hrs by SRB assay; format: cell-based; settings: mcf7, 72 h
MCF7 [9] = test: Reversible inhibition of p-glycoprotein in human vinblastine-resistant MCF7 cells assessed as increase of rhodamine-123 accumulation at 5 to 25 ug/ml measured up to 50 mins; format: cell-based
[10] = target: T1, ATP-dependent translocase ABCB1; test: Inhibition of p-glycoprotein in human vinblastine-resistant MCF7 cells assessed as increase of rhodamine-123 accumulation at 5 to 25 ug/ml measured up to 50 mins; format: cell-based; settings: mcf7, 50 min

T1 sequence (P08183 whole entry): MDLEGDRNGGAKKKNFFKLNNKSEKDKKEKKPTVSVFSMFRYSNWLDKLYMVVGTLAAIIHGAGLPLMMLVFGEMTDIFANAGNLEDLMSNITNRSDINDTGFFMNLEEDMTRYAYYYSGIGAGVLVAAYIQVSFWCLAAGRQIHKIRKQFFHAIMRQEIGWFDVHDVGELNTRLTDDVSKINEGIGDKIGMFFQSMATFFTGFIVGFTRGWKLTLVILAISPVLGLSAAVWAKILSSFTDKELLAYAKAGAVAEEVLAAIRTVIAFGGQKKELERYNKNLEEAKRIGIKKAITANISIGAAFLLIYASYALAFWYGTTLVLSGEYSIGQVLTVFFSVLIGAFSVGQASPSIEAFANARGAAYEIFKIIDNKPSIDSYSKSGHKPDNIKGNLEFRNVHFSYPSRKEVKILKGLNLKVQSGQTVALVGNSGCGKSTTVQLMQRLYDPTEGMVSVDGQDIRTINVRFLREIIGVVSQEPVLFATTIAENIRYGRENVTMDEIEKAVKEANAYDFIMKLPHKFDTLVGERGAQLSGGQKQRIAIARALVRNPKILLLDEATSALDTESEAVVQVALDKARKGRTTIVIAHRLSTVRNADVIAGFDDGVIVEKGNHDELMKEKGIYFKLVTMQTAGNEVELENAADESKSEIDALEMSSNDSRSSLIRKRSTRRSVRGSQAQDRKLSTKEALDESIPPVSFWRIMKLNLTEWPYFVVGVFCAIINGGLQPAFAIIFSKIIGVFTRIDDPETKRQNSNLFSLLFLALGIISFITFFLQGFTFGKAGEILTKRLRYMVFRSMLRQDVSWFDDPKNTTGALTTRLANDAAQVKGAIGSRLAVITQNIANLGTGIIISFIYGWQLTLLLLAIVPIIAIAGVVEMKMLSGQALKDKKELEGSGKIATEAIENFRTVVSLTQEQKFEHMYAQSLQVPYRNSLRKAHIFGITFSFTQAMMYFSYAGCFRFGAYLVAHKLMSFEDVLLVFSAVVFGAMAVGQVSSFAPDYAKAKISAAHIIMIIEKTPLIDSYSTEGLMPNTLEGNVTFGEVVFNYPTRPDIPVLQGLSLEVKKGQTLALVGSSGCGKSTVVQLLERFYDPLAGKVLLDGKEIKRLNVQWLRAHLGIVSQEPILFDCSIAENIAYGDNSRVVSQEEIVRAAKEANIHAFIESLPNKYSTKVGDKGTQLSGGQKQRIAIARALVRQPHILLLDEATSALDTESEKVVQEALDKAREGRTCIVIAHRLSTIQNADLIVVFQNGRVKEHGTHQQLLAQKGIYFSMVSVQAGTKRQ

| Structure (SMILES) | fold change (FC) (MCF7 [1]) | fold change (FC) [2] | IC50 (MCF7 [3]) [µg/mL] | IC50 (MCF7 [4]) [µg/mL] | fold change (FC) [5] | inhibition (INH) [6] | fold change (FC) [7] | fold change (FC) [8] | inhibition (MCF7 [9]) | inhibition (INH) [10] |
| --- | --- | --- | --- | --- | --- | --- | --- | --- | --- | --- |
| CCCCCCCCCC(=O)O[C@H]1[C@H](O[C@@H]2[C@@H](O)[C@@H](O)[C@H](O[C@H]3[C@H](O[C@@H](CCCCC)CCCCCCCCCC(=O)O[C@H]4[C@H](O)[C@@H](O)[C@H](O[C@@H]5[C@@H](O[C@@H]6O[C@@H](C)[C@H](OC(=O)CCCCC)[C@@H](OC(=O)/C=C/c7ccccc7)[C@H]6O)[C@H](C)O[C@@H](O[C@@H]6[C@@H](O)[C@H]7OC(=O)CCCCCCCCC[C@H](CCCCC)O[C@@H]8O[C@H](CO)[C@@H](O)[C@H](O)[C@H]8O[C@@H]7O[C@H]6C)[C@@H]5OC(=O)CCCCCCCCC)O[C@@H]4CO)O[C@H](CO)[C@@H](O)[C@@H]3O)O[C@H]2C)O[C@@H](C)[C@H](O[C@@H]2O[C@@H](C)[C@H](OC(=O)CCCCC)[C@@H](OC(=O)/C=C/c3ccccc3)[C@H]2O)[C@H]1O[C@@H]1O[C@H](CO)[C@@H](O)[C@H](O)[C@H]1O [PURGIN III] | 4.7 | 6.5 | > 25 | > 25 | 6.4 |  |  |  |  |  |
| CCCCCCCCCC(=O)O[C@H]1[C@H](O[C@@H]2[C@@H](O)[C@H]3OC(=O)CCCCCCCCC[C@H](CCCCC)O[C@@H]4O[C@H](C)[C@H](O)[C@H](O)[C@H]4O[C@@H]3O[C@H]2C)O[C@@H](C)[C@H](O[C@@H]2O[C@@H](C)[C@H](OC(=O)[C@@H](C)CC)[C@@H](O)[C@H]2OC(=O)/C=C/c2ccccc2)[C@H]1O[C@@H]1O[C@H](CO)[C@@H](O)[C@H](O)[C@H]1O [PURGINOSIDE I] | 0.8 | 2.9 | > 25 | > 25 | 2.8 |  |  |  |  |  |
| CCCCCCCCCC(=O)O[C@H]1[C@H](O[C@@H]2[C@@H](O)[C@H]3OC(=O)CCCCCCCCC[C@H](CCCCC)O[C@@H]4O[C@H](C)[C@H](O)[C@H](O)[C@H]4O[C@@H]3O[C@H]2C)O[C@@H](C)[C@H](O[C@@H]2O[C@@H](C)[C@H](OC(=O)CCCCC)[C@@H](OC(=O)/C=C/c3ccccc3)[C@H]2O)[C@H]1O[C@@H]1O[C@H](CO)[C@@H](O)[C@H](O)[C@H]1O [PURGINOSIDE II] | 1.4 | 1.4 | > 25 | > 25 | 1.2 |  |  |  |  |  |
| COC(=O)[C@H]1[C@H]2C[C@@H]3c4[nH]c5cc(OC)ccc5c4CCN3C[C@H]2C[C@@H](OC(=O)c2cc(OC)c(OC)c(OC)c2)[C@@H]1OC [RESERPINE] |  |  |  |  |  | Active | 4.4 | 29.2 |  |  |
| CCCCCCCCCC(=O)O[C@H]1[C@H](O[C@@H]2[C@@H](O)[C@@H](O)[C@H](O[C@H]3[C@H](O[C@@H](CCCCC)CCCCCCCCCC(=O)O[C@H]4[C@H](O)[C@@H](O)[C@H](O[C@@H]5[C@@H](O[C@@H]6O[C@@H](C)[C@H](OC(=O)[C@@H](C)CC)[C@@H](OC(=O)/C=C/c7ccccc7)[C@H]6O)[C@H](C)O[C@@H](O[C@@H]6[C@@H](O)[C@H]7OC(=O)CCCCCCCCC[C@H](CCCCC)O[C@@H]8O[C@H](CO)[C@@H](O)[C@H](O)[C@H]8O[C@@H]7O[C@H]6C)[C@@H]5OC(=O)CCCCCCCCC)O[C@@H]4CO)O[C@H](CO)[C@@H](O)[C@@H]3O)O[C@H]2C)O[C@@H](C)[C@H](O[C@@H]2O[C@@H](C)[C@H](OC(=O)[C@@H](C)CC)[C@@H](OC(=O)/C=C/c3ccccc3)[C@H]2O)[C@H]1O[C@@H]1O[C@H](CO)[C@@H](O)[C@H](O)[C@H]1O [PURGIN II] | >73.4 | > 2140.6 | > 25 | > 25 | > 1687.5 |  |  |  | Active | Active |
| CCCCCCCCCC(=O)O[C@H]1[C@H](O[C@@H]2[C@@H](O)[C@H]3OC(=O)CCCCCCCCC[C@H](CCCCC)O[C@@H]4O[C@H](C)[C@H](O)[C@H](O)[C@H]4O[C@@H]3O[C@H]2C)O[C@@H](C)[C@H](O[C@@H]2O[C@@H](C)[C@H](OC(=O)CCCCC)[C@@H](O)[C@H]2O)[C@H]1O[C@@H]1O[C@H](CO)[C@@H](O)[C@H](O)[C@H]1O [PURGINOSIDE IV] | 2.5 | 3 | > 25 | > 25 | 3.3 |  |  |  |  |  |
| CCCCCCCCCCCC(=O)O[C@H]1[C@H](O[C@@H]2[C@@H](O)[C@@H](O)[C@H](O[C@H]3[C@H](O[C@@H](CCCCC)CCCCCCCCCC(=O)O[C@H]4[C@H](O)[C@@H](O)[C@H](O[C@@H]5[C@@H](O[C@@H]6O[C@@H](C)[C@H](OC(=O)[C@@H](C)CC)[C@@H](O)[C@H]6OC(=O)/C=C/c6ccccc6)[C@H](C)O[C@@H](O[C@@H]6[C@@H](O)[C@H]7OC(=O)CCCCCCCCC[C@H](CCCCC)O[C@@H]8O[C@H](C)[C@H](O)[C@H](O)[C@H]8O[C@@H]7O[C@H]6C)[C@@H]5OC(=O)CCCCCCCCCCC)O[C@@H]4CO)O[C@H](C)[C@H](O)[C@@H]3O)O[C@H]2C)O[C@@H](C)[C@H](O[C@@H]2O[C@@H](C)[C@H](OC(=O)[C@@H](C)CC)[C@@H](OC(=O)/C=C/c3ccccc3)[C@H]2O)[C@H]1O[C@@H]1O[C@H](CO)[C@@H](O)[C@H](O)[C@H]1O [PURGIN I] | 2.9 | 3.8 | > 25 | > 25 | 4.7 |  |  |  |  |  |
